Patent publication US20080311126A1, “Antisense Oligonucleotides Directed to Ribonucleotide Reducatase R2 and Uses Thereof in Combination Therapies for the Treatment of Cancer” (Genesense Technologies, Inc, priority 2004, published 2008)
Oligonucleotides are written 5' to 3', each unit as a sugar letter and its base; * is a phosphorothioate linkage, no mark a phosphodiester; rarer units and linkages stand in square brackets, end groups in braces. Plain capitals give the bases only. d = 2'-deoxy (DNA)

Columns and labels:
Experiment in all cases: Relative colony forming efficiency (Example 17, Table 13)
Assay type in all cases: cell-based, human
[1] = test system: HepG2 hepatocellular carcinoma; settings: averages of 2-8 determinations
Experimental: (§1) Colony forming efficiency was determined using standard protocols. […] The test oligonucleotides were added to cell cultures in the presence of 2.5 μg of DOTMA/DOPE (Lipofectin; Life Technologies, Inc.) for four hours. The oligonucleotide was tested at 0.2 μM unless otherwise indicated. Controls were the cultures treated with lipofectin but without the oligonucleotide. […] Surviving cells were visualized by methylene blue staining, and colonies were scored. In some experiments cell aliquots were removed from the culture and viability was determined using the trypan blue exclusion test. Results were analyzed as percent of surviving cells compared to control cells. To test the antisense effects of many of these sequences as phosphorthioate deoxyribonucleotides, they were examined in relative colony forming experiments conducted as described in Example 16 with a series of human tumour cell lines. The results (shown as % inhibition of colony forming ability) obtained with cancer cells derived from the bladder, breast, lung, colon, pancreas, prostate, liver and cervix, are shown in Table 13. The specific cell lines employed are as follows: […]

[2] = test system: PC-3 prostrate cell adenocarcinoma; settings: averages of 2-8 determinations
Experimental: as §1

[3] = test system: T24 bladder cell carcinoma; settings: averages of 2-8 determinations
Experimental: as §1

[4] = test system: A549 lung cell carcinoma; settings: averages of 2-8 determinations
Experimental: as §1

[5] = test system: MDA PaCa-2 pancreatic cell carcinoma; settings: MIA PaCa-2 pancreatic cell carcinoma; averages of 2-8 determinations
Experimental: as §1

[6] = test system: HCT116 colon cell carcinoma; settings: averages of 2-8 determinations
Experimental: as §1

Substance	Reduced relative colony forming efficiency, HepG2 (% inhibition of colony forming ability) [1] [%]	Reduced relative colony forming efficiency, PC-3 (% inhibition of colony forming ability) [2] [%]	Reduced relative colony forming efficiency, T24 (% inhibition of colony forming ability) [3] [%]	Reduced relative colony forming efficiency, A549 (% inhibition of colony forming ability) [4] [%]	Reduced relative colony forming efficiency, MIA PaCa-2 (% inhibition of colony forming ability) [5] [%]	Reduced relative colony forming efficiency, HCT116 (% inhibition of colony forming ability) [6] [%]
TCAGCATCCAAGGTAAAAGA (antisense dT*dC*dA*dG*dC*dA*dT*dC*dC*dA*dA*dG*dG*dT*dA*dA*dA*dA*dG*dA) [AS-II-1338-20]	80.41	93.75	63.16	63.93	79.17	74.73
CGGCTCATCCTCCACGC (antisense dC*dG*dG*dC*dT*dC*dA*dT*dC*dC*dT*dC*dC*dA*dC*dG*dC) [AS-II-391-17]	60.64	93.25	–	–	26.35	–
TTGTGTACCAGGTGTTTGAA (antisense dT*dT*dG*dT*dG*dT*dA*dC*dC*dA*dG*dG*dT*dG*dT*dT*dT*dG*dA*dA) [AS-II-1023-20]	–	87.63	58.26	34.52	42.82	–
GACGGCTGGGACAGGGTGCA (antisense dG*dA*dC*dG*dG*dC*dT*dG*dG*dG*dA*dC*dA*dG*dG*dG*dT*dG*dC*dA) [AS-II-134-20]	–	77.51	–	–	–	–
ATGGTACTCGATGGGGAAGA (chemistry not given here) [AS-II-439-20]	73.04	77.66	67.84	76.46	92.69	64.7
CCAGCACTATAAACAGACAG (antisense dC*dC*dA*dG*dC*dA*dC*dT*dA*dT*dA*dA*dA*dC*dA*dG*dA*dC*dA*dG) [AS-II-1517-20]	–	91.75	–	–	–	–
GCATCCAAGGTAAAAGAATT (antisense dG*dC*dA*dT*dC*dC*dA*dA*dG*dG*dT*dA*dA*dA*dA*dG*dA*dA*dT*dT) [AS-II-1335-20]	72.98	90.04	59.95	78.59	78.78	67.87
TGGGACAGGGTGCACGGGCG (antisense dT*dG*dG*dG*dA*dC*dA*dG*dG*dG*dT*dG*dC*dA*dC*dG*dG*dG*dC*dG) [AS-II-130-20]	94.28	74.66	–	86.48	82.11	–
CCGTGGGCTCCTGGAAGATC (antisense dC*dC*dG*dT*dG*dG*dG*dC*dT*dC*dC*dT*dG*dG*dA*dA*dG*dA*dT*dC) [AS-II-344-20]	–	80.06	–	–	–	–
ATCCAGCGCAAGGCCCAGTC (antisense dA*dT*dC*dC*dA*dG*dC*dG*dC*dA*dA*dG*dG*dC*dC*dC*dA*dG*dT*dC) [AS-II-816-20]	93.08	94.08	73.91	78.4	93.21	88.22
AAGCGGCGGGGGTTTTCTCT (antisense dA*dA*dG*dC*dG*dG*dC*dG*dG*dG*dG*dG*dT*dT*dT*dT*dC*dT*dC*dT) [AS-II-414-20]	30.89	60.94	11.67	12.44	36.11	19.1
CAAATGGGTTCTCTACTCTG (antisense dC*dA*dA*dA*dT*dG*dG*dG*dT*dT*dC*dT*dC*dT*dA*dC*dT*dC*dT*dG) [AS-II-1217-20]	–	81.03	66.36	91.49	34.85	68.68
TCCTCGCGGTCTTGCTGGCC (antisense dT*dC*dC*dT*dC*dG*dC*dG*dG*dT*dC*dT*dT*dG*dC*dT*dG*dG*dC*dC) [AS-II-323-20]	96.39	79.76	–	91.24	97.55	55.8
AGCTGCTGCGGGTCCGTGAT (antisense dA*dG*dC*dT*dG*dC*dT*dG*dC*dG*dG*dG*dT*dC*dC*dG*dT*dG*dA*dT) [AS-II-225-20]	–	30.06	73.23	–	95.44	59.5
TTCTGGCAAAAGGTGATACT (antisense dT*dT*dC*dT*dG*dG*dC*dA*dA*dA*dA*dG*dG*dT*dG*dA*dT*dA*dC*dT) [AS-II-1538-20]	96.84	84.71	67.29	90.34	50.62	51.28
AGCCTCTGCCTTCTTATACA (antisense dA*dG*dC*dC*dT*dC*dT*dG*dC*dC*dT*dT*dC*dT*dT*dA*dT*dA*dC*dA) [AS-II-472-20]	–	90.7	69.26	96.99	97.13	67.23
AS-II-134220 (antisense dG*dA*dA*dG*dT*dC*dA*dG*dC*dA*dT*dC*dC*dA*dA*dG*dG*dT*dA*dA)	82.2	89.84	59.76	65.67	73.77	73.74
GCGGCGGGGGTTTTCTCTCA (antisense dG*dC*dG*dG*dC*dG*dG*dG*dG*dG*dT*dT*dT*dT*dC*dT*dC*dT*dC*dA) [AS-II-412-20]	26.23	73.96	22.2	43.78	55.25	27.98
ACTGCCATTGTCACTGCTAT (antisense dA*dC*dT*dG*dC*dC*dA*dT*dT*dG*dT*dC*dA*dC*dT*dG*dC*dT*dA*dT) [AS-II-1581-20]	93.07	85.83	68.22	90.55	24.07	66.85
GAAGCCATAGAAACAGCGGG (antisense dG*dA*dA*dG*dC*dC*dA*dT*dA*dG*dA*dA*dA*dC*dA*dG*dC*dG*dG*dG) [AS-II-667-20]	88.23	91.8	70.48	70.3	85.26	–
